In patent publication US11655246B2, “Aminothiazole compounds as inhibitors of CTPS1” (STEP PHARMA S.A.S., priority 2017, dated 2023):
Several values for one entry are separate records, joined by “and”; a condition that tells them apart may be missing. Identical values can stand only once. Counter-ions that a name gives are not always drawn.

target: T1, human CTPS1 (Homo sapiens, UniProt P17812); experiment: Human CTPS1 enzyme inhibition (ADP-Glo Max assay); format: biochemical; settings: Table 17, 25° C., read-out: CTPS1 (Human CTPS1 Enzyme Inhibition data grouped by potency range)
T1 construct: purchased Proteros biostructures GmbH
T1 sequence (P17812 1-591): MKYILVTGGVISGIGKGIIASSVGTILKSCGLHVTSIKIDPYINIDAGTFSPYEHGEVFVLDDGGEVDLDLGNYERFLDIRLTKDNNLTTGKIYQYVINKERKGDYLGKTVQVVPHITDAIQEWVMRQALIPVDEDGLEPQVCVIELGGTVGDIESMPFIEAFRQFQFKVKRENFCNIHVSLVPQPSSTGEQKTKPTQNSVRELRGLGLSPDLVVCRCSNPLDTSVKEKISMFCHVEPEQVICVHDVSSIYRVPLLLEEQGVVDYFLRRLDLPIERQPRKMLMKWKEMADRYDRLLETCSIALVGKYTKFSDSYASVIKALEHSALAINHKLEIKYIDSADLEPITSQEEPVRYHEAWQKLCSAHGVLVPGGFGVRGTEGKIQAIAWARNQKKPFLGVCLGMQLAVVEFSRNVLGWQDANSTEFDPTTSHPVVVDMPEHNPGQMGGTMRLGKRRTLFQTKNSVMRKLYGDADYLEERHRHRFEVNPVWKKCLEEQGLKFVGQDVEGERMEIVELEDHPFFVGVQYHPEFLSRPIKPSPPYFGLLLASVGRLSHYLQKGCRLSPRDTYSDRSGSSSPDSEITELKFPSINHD
Description: The enzyme inhibitory activities of compounds invented against the target of interest were determined using the ADP-Glo™ Max assay (Promega, UK). Assays for human CTPS1 were performed in 1× assay buffer containing 50 mM Tris, 10 mM MgCl2, 0.01% Tween-20, pH to 8.0 accordingly. Finally, immediately before use, L-cysteine was added to the 1× assay buffer to a final concentration of 2 mM. All reagents are from Sigma-Aldrich unless specified otherwise.
3× human CTPS1 protein was prepared in 1× assay buffer to the final working protein concentration required for the reaction. A 2 uL volume per well of 3× human CTPS1 protein was mixed with 2 uL per well of 3× test compound (compound prepared in 1× assay buffer to an appropriate final 3× compound concentration respective to the concentration response curve designed for the compounds under test) for 10 minutes at 25° C. […] ADP-Glo™ Max reagent was added for 60 minutes (6 uL per well) and subsequently ADP-Glo™ Max development reagent was added for 60 minutes (12 uL per well) prior to signal detection in a microplate reader (EnVision® Multilabel Reader, Perkin Elmer). Following each reagent addition over the course of the assay, assay plates were pulse centrifuged for 30 seconds at 500 rpm.
In all cases, the enzyme converts ATP to ADP and the ADP-Glo™ Max reagent subsequently depletes any remaining endogenous ATP in the reaction system. The ADP-Glo™ Max detection reagent converts the ADP that has been enzymatically produced back into ATP and using ATP as a substrate together with luciferin for the enzyme luciferase, light is generated which produces a detectable luminescence. […] The percentage inhibition produced by each concentration of compound was calculated using the equation shown below: […]

IC50, < 100 nM:
CCOc1cncc(-c2ccc(NC(=O)C(CC)c3csc(NS(=O)(=O)C4CC4)n3)cc2)n1 (stereo not drawn) [T189]
CCC(C(=O)Nc1ccc(-c2cccnc2)cc1)c1csc(NS(=O)(=O)C2CC2)n1 (racemic) [T5, 2-(2-(cyclopropanesulfonamido)thiazol-4-yl)-N-(4-(pyridin-3-yl)phenyl)butanamide]
CCC(C(=O)Nc1ccc(-c2cncc(OC(C)C)n2)cc1)c1csc(NS(=O)(=O)C2CC2)n1 (stereo not drawn) [T76]
COCCC(C(=O)Nc1ccc(-c2cncc(OC)c2)cn1)c1csc(NS(=O)(=O)C2CC2)n1 (stereo not drawn) [T171]
CCC(C(=O)Nc1ccc(-c2cncc(F)c2)cc1F)c1csc(NS(=O)(=O)C2CC2)n1 (stereo not drawn) [T200]
CCC(C(=O)Nc1ccc(-c2cncc(Cl)n2)cn1)c1csc(NS(=O)(=O)C2CC2)n1 (stereo not drawn) [T187]
CCC(C(=O)Nc1ccc(-c2cccnc2)cc1Cl)c1csc(NS(=O)(=O)C2CC2)n1 (stereo not drawn) [T221]
CC(C)OC(C(=O)Nc1ccc(-c2cncc(C(F)(F)F)n2)cn1)c1csc(NS(=O)(=O)C2CC2)n1 (stereo not drawn) [T172]
CCC(C(=O)Nc1ccc(-c2cncc(OCC(F)(F)F)n2)cc1F)c1csc(NS(=O)(=O)C2CC2)n1 (stereo not drawn) [T207]
CCC(C(=O)Nc1ccc(-c2cncc(C(F)(F)F)n2)cn1)c1csc(NS(=O)(=O)C2CC2)n1 (stereo not drawn) [T175]
CC(C(=O)Nc1ccc(-c2cccnc2)cc1)c1csc(NS(=O)(=O)C2CC2)n1 (stereo not drawn) [T102]

IC50, 1000 to 10000 nM:
O=C(Cc1nc(NS(=O)(=O)C2CC2)sc1Cl)Nc1ccc(-c2ccccc2)cc1 [T21, N-([1,1′-biphenyl]-4-yl)-2-(5-chloro-2-(cyclopropanesulfonamido)thiazol-4-yl)acetamide]

IC50, 100 to 1000 nM:
O=C(Nc1ccc(-c2cncc(F)c2)cc1)C1CCc2sc(NS(=O)(=O)C3CC3)nc21 (stereo not drawn) [T218]
COc1cncc(-c2ccc(NC(=O)C(C)(C)c3csc(NS(=O)(=O)C4CC4)n3)cc2)c1 [T15, 2-(2-(cyclopropanesulfonamido)thiazol-4-yl)-N-(4-(5-methoxypyridin-3-yl)phenyl)-2-methylpropanamide]
COCCC(C(=O)Nc1ccc(-c2cnccn2)cn1)c1csc(NS(=O)(=O)C2CC2)n1 (stereo not drawn) [T170]
Cc1ncc(-c2ccc(NC(=O)C(C)(C)c3csc(NS(=O)(=O)C4CC4)n3)cc2)nc1Cl [T277]

same assay, conditions: Table 18, additional potency data, 25° C., read-out: CTPS1 (Human CTPS1 Enzyme Inhibition data grouped by potency range)

IC50, 100 to 1000 nM and < 100 nM:
CC(C)(C(=O)Nc1c(F)cc(-c2cncc(Cl)c2)cc1F)c1csc(NS(=O)(=O)C2CC2)n1 [T351, N-(4-(5-chloropyridin-3-yl)-2,6-difluorophenyl)-2-(2-(cyclopropanesulfonamido)thiazol-4-yl)-2-methylpropanamide]

IC50, < 100 nM:
CCOc1cncc(-c2ccc(NC(=O)C(C)(C)c3csc(NS(=O)(=O)C4CC4)n3)nc2)n1 [T341, 2-(2-(cyclopropanesulfonamido)thiazol-4-yl)-N-(5-(6-ethoxypyrazin-2-yl)pyridin-2-yl)-2-methylpropanamide]
CC(C)(C(=O)Nc1ccc(-c2cncc(F)c2)cc1C(F)(F)F)c1csc(NS(=O)(=O)C2CC2)n1 [T345, 2-(2-(cyclopropanesulfonamido)thiazol-4-yl)-N-(4-(5-fluoropyridin-3-yl)-2-(trifluoromethyl)phenyl)-2-methylpropanamide]
CCOc1cncc(-c2ccc(NC(=O)C(c3csc(NS(=O)(=O)C4CC4)n3)N(C)C)c(F)c2)n1 (stereo not drawn) [T421, 2-(2-(Cyclopropanesulfonamido)thiazol-4-yl)-2-(dimethylamino)-N-(4-(6-ethoxypyrazin-2-yl)-2-fluorophenyl)acetamide]
CCOc1cncc(-c2ccc(NC(=O)C(CCO)c3csc(NS(=O)(=O)C4CC4)n3)cc2)n1 (stereo not drawn) [T329, 2-(2-(cyclopropanesulfonamido)thiazol-4-yl)-N-(4-(6-ethoxypyrazin-2-yl)phenyl)-4-hydroxybutanamide]
CCOc1cncc(-c2ccc(NC(=O)C(CC)c3csc(NS(=O)(=O)C4CC4)n3)c(C#N)c2)n1 (stereo not drawn) [T440]
CCOc1cncc(-c2ccc(NC(=O)C(C)(C)c3csc(NS(=O)(=O)C4CC4)n3)cc2C)n1 [T371, 2-(2-(cyclopropanesulfonamido)thiazol-4-yl)-N-(4-(6-ethoxypyrazin-2-yl)-3-methylphenyl)-2-methylpropanamide]
CCS(=O)(=O)Nc1nc(C(C)(C)C(=O)Nc2ccc(-c3cncc(C(F)(F)F)n3)cn2)cs1 [T381, 2-(2-(ethylsulfonamido)thiazol-4-yl)-2-methyl-N-(5-(6-(trifluoromethyl)pyrazin-2-yl)pyridin-2-yl)propanamide]
CN(C)C(C(=O)Nc1ccc(-c2cncc(C(F)(F)F)n2)cc1F)c1csc(NS(=O)(=O)C2CC2)n1 (stereo not drawn) [T420, 2-(2-(Cyclopropanesulfonamido)thiazol-4-yl)-2-(dimethylamino)-N-(2-fluoro-4-(6-(trifluoromethyl)pyrazin-2-yl)phenyl)acetamide]
CCOc1cncc(-c2ccc(NC(=O)C(CC)c3csc(NS(=O)(=O)C4CC4)n3)c(F)c2)n1 (single isomer, unassigned) [T412, 2-(2-(cyclopropanesulfonamido)thiazol-4-yl)-N-(4-(6-ethoxypyrazin-2-yl)-2-fluorophenyl)butanamide]
CCOc1cncc(-c2ccc(NC(=O)C(C)(C)c3csc(NS(=O)(=O)C4CC4)n3)nc2)c1 [T337, 2-(2-(cyclopropanesulfonamido)thiazol-4-yl)-N-(5′-ethoxy-[3,3′-bipyridin]-6-yl)-2-methylpropanamide]
CCOc1cncc(-c2cnc(NC(=O)C(CC)c3csc(NS(=O)(=O)C4CC4)n3)c(F)c2)n1 (single isomer, unassigned) [T456]

IC50, 100 to 1000 nM:
NC(C(=O)Nc1ccc(-c2cncc(C(F)(F)F)n2)cn1)c1csc(NS(=O)(=O)C2CC2)n1 (stereo not drawn) [T417, 2-Amino-2-(2-(cyclopropanesulfonamido)thiazol-4-yl)-N-(5-(6-(trifluoromethyl)pyrazin-2-yl)pyridin-2-yl)acetamide hydrochloride]
CCOc1cncc(-c2ccc(NC(=O)C(C)(C)c3csc(NS(=O)(=O)C4CCCC4)n3)cc2)n1 [T335, 2-(2-(cyclopentanesulfonamido)thiazol-4-yl)-N-(4-(6-ethoxypyrazin-2-yl)phenyl)-2-methylpropanamide]
CC(C)(C(=O)Nc1ccc(-c2cncc(C(F)(F)F)n2)cn1)c1csc(NS(=O)(=O)CC2CC2)n1 [T396, 2-(2-((cyclopropylmethyl)sulfonamido)thiazol-4-yl)-2-methyl-N-(5-(6-(trifluoromethyl)pyrazin-2-yl)pyridin-2-yl)propanamide]
CCC(C(=O)Nc1ccc(-c2cncc(C(F)(F)F)c2)cc1F)c1csc(NS(=O)(=O)C2CC2)n1 (single isomer, unassigned) [T415, 2-(2-(cyclopropanesulfonamido)thiazol-4-yl)-N-(2-fluoro-4-(5-(trifluoromethyl)pyridin-3-yl)phenyl)butanamide]
CCC(C(=O)Nc1ccc(-c2cncc(C(C)C)n2)cn1)c1csc(NS(=O)(=O)C2CC2)n1 (stereo not drawn) [T401, 2-(2-(cyclopropanesulfonamido)thiazol-4-yl)-N-(5-(6-isopropylpyrazin-2-yl)pyridin-2-yl)butanamide]
CCS(=O)(=O)Nc1nc(C(C)(C)C(=O)Nc2ccc(-c3cccnc3)cc2)cs1 [T386, 2-(2-(ethylsulfonamido)thiazol-4-yl)-2-methyl-N-(4-(pyridin-3-yl)phenyl)propanamide]
CC(C)c1cc(-c2cncc(C(F)(F)F)n2)ccc1NC(=O)C(C)(C)c1csc(NS(=O)(=O)C2CC2)n1 [T361, 2-(2-(cyclopropanesulfonamido)thiazol-4-yl)-N-(2-isopropyl-4-(6-(trifluoromethyl)pyrazin-2-yl)phenyl)-2-methylpropanamide]

IC50, 1000 to 10000 nM:
Cc1sc(NS(=O)(=O)C2CC2)nc1C(C)(C)C(=O)Nc1ccc(-c2cncc(C#N)c2)cc1 [T374, N-(4-(5-cyanopyridin-3-yl)phenyl)-2-(2-(cyclopropanesulfonamido)-5-methylthiazol-4-yl)-2-methylpropanamide]
